How the values were obtained:
[1] = target: T1, GABAA2 receptors (α2, β3, γ2 receptor subunits transfected into Sf9 cells) (Homo sapiens, UniProt P18507+P47869); assay: GABAA2 Binding Method ([3H]-Flunitrazepam displacement); settings: [3H]-Flunitrazepam ~2 nM, α2β3γ2 Sf9 membranes, 1 hr at 4° C.
T1 construct: host or cells: Sf9 cells (membranes)
In short: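 Membranes from Sf9 cells expressing α2β3γ2 GABAA receptors incubated with ~2 nM (final) [3H]-flunitrazepam and test compound 1 h at 4 °C, then filtered on GF/B plates with cold-buffer washes. Flumazenil-defined controls; percent of control, IC50 and Ki calculated.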

GABAA receptor α2β3γ2 = target: T2, GABAA receptor α2β3γ2 (Homo sapiens, UniProt P18507+P47869); assay: Two-electrode voltage-clamp potentiation of GABA EC10 current in Xenopus oocytes, GABAA2; type: cell-based; settings: percentage potentiation of GABA EC10 current divided by that of diazepam
T2 construct: expressed in transfected cells; host or cells: Xenopus laevis oocytes injected with cRNA
T2 sequence (P47869 29-451): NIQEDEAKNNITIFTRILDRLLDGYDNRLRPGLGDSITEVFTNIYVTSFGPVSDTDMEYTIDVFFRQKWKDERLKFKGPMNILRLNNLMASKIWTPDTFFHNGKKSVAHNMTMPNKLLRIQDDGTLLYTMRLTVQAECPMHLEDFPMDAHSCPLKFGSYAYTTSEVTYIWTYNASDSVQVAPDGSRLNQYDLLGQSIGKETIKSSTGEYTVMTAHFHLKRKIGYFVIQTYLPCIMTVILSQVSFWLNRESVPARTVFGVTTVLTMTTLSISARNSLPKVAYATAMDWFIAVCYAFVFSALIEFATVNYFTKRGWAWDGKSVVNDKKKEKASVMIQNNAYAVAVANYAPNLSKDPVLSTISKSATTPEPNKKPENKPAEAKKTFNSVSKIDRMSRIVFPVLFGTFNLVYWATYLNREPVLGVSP
T2 sequence (P28472 26-473 partner): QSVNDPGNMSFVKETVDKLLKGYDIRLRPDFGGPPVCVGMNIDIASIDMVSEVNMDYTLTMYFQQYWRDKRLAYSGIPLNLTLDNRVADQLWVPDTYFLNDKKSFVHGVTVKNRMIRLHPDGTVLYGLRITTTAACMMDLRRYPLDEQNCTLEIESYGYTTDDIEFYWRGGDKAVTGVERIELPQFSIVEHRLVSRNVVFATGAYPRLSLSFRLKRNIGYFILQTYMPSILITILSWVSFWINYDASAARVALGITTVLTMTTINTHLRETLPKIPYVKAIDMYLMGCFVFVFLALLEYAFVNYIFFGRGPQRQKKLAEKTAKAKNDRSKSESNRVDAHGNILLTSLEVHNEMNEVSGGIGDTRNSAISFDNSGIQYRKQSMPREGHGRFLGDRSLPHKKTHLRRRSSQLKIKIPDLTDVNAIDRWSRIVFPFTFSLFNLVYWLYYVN
T2 sequence (P18507 40-475): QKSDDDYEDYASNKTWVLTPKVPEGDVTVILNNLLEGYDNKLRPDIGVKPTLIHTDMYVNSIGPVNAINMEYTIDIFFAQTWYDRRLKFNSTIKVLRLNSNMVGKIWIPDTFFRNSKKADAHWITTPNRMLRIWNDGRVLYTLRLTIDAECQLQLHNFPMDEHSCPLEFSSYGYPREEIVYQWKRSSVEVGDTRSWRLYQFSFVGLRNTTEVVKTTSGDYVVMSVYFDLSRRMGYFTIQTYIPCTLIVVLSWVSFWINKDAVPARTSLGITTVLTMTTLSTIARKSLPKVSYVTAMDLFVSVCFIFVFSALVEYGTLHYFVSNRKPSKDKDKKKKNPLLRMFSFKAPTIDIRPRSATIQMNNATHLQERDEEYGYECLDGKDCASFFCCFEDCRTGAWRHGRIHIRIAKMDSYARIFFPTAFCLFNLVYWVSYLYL
In short: (§1)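 Human GABAA receptors expressed in Xenopus oocytes by cRNA injection (α:β:γ molar ratio ~1:1:10 for α1β2γ2, 1:1:1 for α2β3γ2), recorded 2-10 days later by two-electrode voltage clamp at −60 mV in ND-96, pH 7.5. Modulator preapplied 30 s before GABA at per-oocyte EC10. Peak-current percent potentiation over GABA alone, normalised to diazepam.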

GABAA receptor α1β2γ2 = target: T3, GABAA receptor α1β2γ2 (Homo sapiens, UniProt P14867+P18507); assay: Two-electrode voltage-clamp potentiation of GABA EC10 current in Xenopus oocytes, GABAA1; type: cell-based; settings: percentage potentiation of GABA EC10 current divided by that of diazepam
T3 construct: expressed in transfected cells; host or cells: Xenopus laevis oocytes injected with cRNA
T3 sequence (P14867 28-456): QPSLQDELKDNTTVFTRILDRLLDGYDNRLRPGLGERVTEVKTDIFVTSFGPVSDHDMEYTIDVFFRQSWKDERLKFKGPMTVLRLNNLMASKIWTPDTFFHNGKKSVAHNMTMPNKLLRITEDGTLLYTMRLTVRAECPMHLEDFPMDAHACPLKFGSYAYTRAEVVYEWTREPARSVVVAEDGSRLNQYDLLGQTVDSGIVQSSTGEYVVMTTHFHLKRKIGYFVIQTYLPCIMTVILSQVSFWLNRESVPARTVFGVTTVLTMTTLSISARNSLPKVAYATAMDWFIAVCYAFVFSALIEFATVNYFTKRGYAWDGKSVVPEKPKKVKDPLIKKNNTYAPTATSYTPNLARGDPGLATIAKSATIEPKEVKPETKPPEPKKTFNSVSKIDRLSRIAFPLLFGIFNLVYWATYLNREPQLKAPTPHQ
T3 sequence (P47870 25-512 partner limits assumed): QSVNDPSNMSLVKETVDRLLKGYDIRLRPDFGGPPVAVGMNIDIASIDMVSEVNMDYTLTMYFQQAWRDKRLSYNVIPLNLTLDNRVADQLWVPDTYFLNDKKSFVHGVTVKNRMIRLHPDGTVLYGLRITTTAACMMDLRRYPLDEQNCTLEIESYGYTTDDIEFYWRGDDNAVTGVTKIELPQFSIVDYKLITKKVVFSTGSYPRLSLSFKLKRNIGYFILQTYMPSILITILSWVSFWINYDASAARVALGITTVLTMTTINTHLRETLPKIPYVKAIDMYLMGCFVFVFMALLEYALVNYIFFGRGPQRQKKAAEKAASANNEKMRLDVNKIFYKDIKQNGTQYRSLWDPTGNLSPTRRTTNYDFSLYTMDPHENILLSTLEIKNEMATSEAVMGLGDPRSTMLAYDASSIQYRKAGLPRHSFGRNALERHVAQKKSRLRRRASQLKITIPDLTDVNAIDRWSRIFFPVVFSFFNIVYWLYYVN
T3 sequence (P18507 40-475): as the sequence (P18507 40-475) above
In short: as §1

[2] = EEG protocol (Method JJ), spontaneous EEG in behaving rats; type: in vivo, Sprague Dawley rats
Source text: In another embodiment, certain compounds of the invention may be useful in treating schizophrenia. In a particular embodiment, certain compounds of the invention may be useful in treating cognitive disorders associated with schizophrenia. The existing non-selective GABAergic agents are generally not suitable for treating information/cognitive processing deficits in schizophrenia due to the unacceptable competing side effects, such as overt sedation and memory impairment. Certain compounds of the invention are capable of selective modification of function at the specific GABAergic synapses affected by the schizophrenic disease state. Therefore, these certain compounds of the invention acting selectively at GABAA α2 subunits may be used for treating cognitive deficits in schizophrenia.
Subjects: Sprague Dawley rats weighing 300-400 g at time of surgery are used as subjects. Rats are maintained>1 week in AstraZeneca vivarium prior to surgical procedures. Rats are housed singly, maintained on a 12:12 light:dark cycle, and fed and watered ad lib for a period of>14 days following surgery. […]
During compound testing sessions, animals are initially allowed to re-acclimate to the operant chamber for 10-20′ minutes prior to a 30-minute baseline session in which performance and EEG are continuously monitored. […]

T1 sequence (P47869 29-451): as the sequence (P47869 29-451) above
T1 sequence (P28472 26-473 partner): as the sequence (P28472 26-473 partner) above
T1 sequence (P18507 40-475): as the sequence (P18507 40-475) above

Row | Compound | Ki [1] [nM] | Relative Potentiation for GABAA2 (GABAA receptor α2β3γ2) | Relative Potentiation for GABAA1 (GABAA receptor α1β2γ2) | Relative Potentiation for GABAA1 (GABAA receptor α1β2γ2; listed as 9-amino-2-cyclobutyl-5-(2,4-dimethoxypyrimidin-5-yl)-2,3-dihydro-1H-pyrrolo[3,4-) | spontaneous EEG across a range of oscillation frequencies [2] | spontaneous EEG at gamma frequencies [2]
1 | COc1cc(-c2cccc3c(N)c4c(nc23)CN(C2CCC2)C4=O)c(OC)nn1 [Example 84, 9-Amino-2-cyclobutyl-5-(3,6-dimethoxypyradazin-4-yl)-2,3-dihydropyrrolo[3,4-b]quinolin-1-one] | 0.74 | 0.42 | 0.088 |  |  | 
2 | COc1cc(-c2cccc3c(N)c4c(nc23)CN(C2CCC2)C4=O)c(C#N)cn1 [Example 96, 4-(9-Amino-2-cyclobutyl-1-oxo-2,3-dihydro-1H-pyrrolo[3,4-b]quinolin-5-yl)-6-methoxyniconitrile] | 15.3 | 0.36 | 0.066 |  |  | 
3 | Cc1nn(C)cc1-c1c(F)ccc2c(N)c3c(nc12)CN([C@@H]1CCOC1)C3=O [Example 97, 9-Amino-5-(1,3-dimethyl-1H-pyrazol-4-yl)-6-fluoro-2-(R)-tetrahydrofuran-3-yl-2,3-dihydropyrrolo[3,4-b]quinolin-1-one] | 10.4 | 0.35 | 0.15 |  |  | 
4 | COc1ccc(-c2c(F)ccc3c(N)c4c(nc23)CN(C2CCC2)C4=O)c(OC)c1 [Example 100, 9-Amino-2-cyclobutyl-5-(2,4-dimethoxyphenyl)-6-fluoro-2,3-dihydropyrrolo[3,4-b]quinolin-1-one] | 0.249 | 0.23 | 0.044 |  |  | 
5 | Nc1c2c(nc3c(-c4cc(F)ccc4F)cccc13)CN(C1CC1)C2=O [Example 112, 9-Amino-2-cyclopropyl-5-(2,5-difluorophenyl)-2,3-dihydropyrrolo[3,4-b]quinolin-1-one] | 6.83 | 0.13 | −0.034 |  |  | 
6 | Nc1c2c(nc3c(-c4c(F)cccc4F)cccc13)CN(C1CC1)C2=O [Example 114, 9-Amino-2-cyclopropyl-5-(2,6-difluorophenyl)-2,3-dihydropyrrolo[3,4-b]quinolin-1-one] | 3.5 | 0.13 | −0.058 |  |  | 
7 | COc1ccc(-c2cccc3c(N)c4c(nc23)CN(C2CC2)C4=O)c(F)c1 [Example 115, 9-Amino-2-cyclopropyl-5-(2-fluoro-4-methoxyphenyl)-2,3-dihydropyrrolo[3,4-b]quinolin-1-one] | 14.5 | 0.12 | −0.05 |  |  | 
8 | COc1ncc(-c2cccc3c(N)c4c(nc23)CN(C2CCC2)C4=O)c(OC)n1 [Example 123, 9-Amino-2-cyclobutyl-5-(2,4-dimethoxypyrimidin-5-yl)-2,3-dihydropyrrolo[3,4-b]quinolin-1-one] | 4.23 | 0.44 | 0.13 | 0.12 |  | 
9 | Nc1c2c(nc3c(-c4ccccc4F)cccc13)CN(C1CCC1)C2=O [Example 124, 9-Amino-2-cyclobutyl-5-(2-fluorophenyl)-2,3-dihydropyrrolo[3,4-b]quinolin-1-one] | 0.945 | 0.14 | −0.016 |  |  | 
10 | COc1ccc(-c2cccc3c(N)c4c(nc23)CN(C2CCCC2)C4=O)cn1 [Example 147, 9-Amino-2-cyclopentyl-5-(6-methoxypyridin-3-yl)-2,3-dihydropyrrolo[3,4-b]quinolin-1-one] | 31.6 | 0.23 | 0.016 |  |  | 
11 | COc1ncccc1-c1c(F)ccc2c(N)c3c(nc12)CN([C@H]1CCOC1)C3=O [Example 170, 9-Amino-6-fluoro-5-(2-methoxypyridin-3-yl)-2-(S)-tetrahydrofuran-3-yl-2,3-dihydropyrrolo[3,4-b]quinolin-1-one] | 5.68 | 0.19 | −0.14 |  |  | 
12 | O=C1Nc2ccc(Cl)cc2C(c2ccccc2Cl)=NC1O (stereo not drawn) [Lorazepam] |  |  |  |  | broad changes | 
13 | Cc1ccc(-c2nc3ccc(C)cn3c2CC(=O)N(C)C)cc1 [zolpidem] |  |  |  |  |  | no significant increase
